Assay type in all cases: functional, cell-based
The target in assay [1] is T1, Taste receptor type 2 member 3 (Homo sapiens) (UniProt Q9NYW6).
T1 sequence (whole entry): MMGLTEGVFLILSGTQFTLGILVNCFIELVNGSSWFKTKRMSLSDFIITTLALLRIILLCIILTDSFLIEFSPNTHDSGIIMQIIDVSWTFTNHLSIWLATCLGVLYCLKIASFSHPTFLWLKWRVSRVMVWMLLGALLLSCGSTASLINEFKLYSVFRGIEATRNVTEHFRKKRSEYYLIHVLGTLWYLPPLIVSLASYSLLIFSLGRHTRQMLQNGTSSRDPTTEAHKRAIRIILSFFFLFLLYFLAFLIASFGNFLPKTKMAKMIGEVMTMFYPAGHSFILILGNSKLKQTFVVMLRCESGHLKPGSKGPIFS
As to the kind of experiment: Antagonist activity at recombinant human N-terminal rat ST3 receptor-fused TAS2R3 expressed in HEK293T cells co-expressing Galpha16gust44 assessed as inhibition of chloroquine-induced increase in intracellular calcium level at 100 uM by FLIPR assay. (Calcium flux is commonly read through the fluorescence of an indicator in the cells.)

Assay [2] deals with T2, Taste receptor type 2 member 31 (Homo sapiens) (UniProt P59538).
T2 sequence (whole entry): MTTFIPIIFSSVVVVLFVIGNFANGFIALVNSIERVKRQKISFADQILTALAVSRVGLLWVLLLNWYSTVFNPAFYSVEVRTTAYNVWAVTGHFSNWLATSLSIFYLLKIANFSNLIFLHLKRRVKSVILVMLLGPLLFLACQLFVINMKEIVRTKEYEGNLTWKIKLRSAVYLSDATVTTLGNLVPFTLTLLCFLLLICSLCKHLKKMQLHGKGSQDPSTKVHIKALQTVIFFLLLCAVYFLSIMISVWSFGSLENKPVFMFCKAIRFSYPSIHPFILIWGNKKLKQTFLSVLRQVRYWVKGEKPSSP
Put plainly: Antagonist activity at recombinant human N-terminal rat ST3 receptor-fused TAS2R44 expressed in HEK293T cells co-expressing Galpha16gust44 assessed as inhibition of aristolochic acid-induced intracellular calcium level at 100 uM by FLIPR assay.

Assay [3] concerns the target T3, Taste receptor type 2 member 20 (Homo sapiens) (UniProt P59543).
T3 sequence (whole entry): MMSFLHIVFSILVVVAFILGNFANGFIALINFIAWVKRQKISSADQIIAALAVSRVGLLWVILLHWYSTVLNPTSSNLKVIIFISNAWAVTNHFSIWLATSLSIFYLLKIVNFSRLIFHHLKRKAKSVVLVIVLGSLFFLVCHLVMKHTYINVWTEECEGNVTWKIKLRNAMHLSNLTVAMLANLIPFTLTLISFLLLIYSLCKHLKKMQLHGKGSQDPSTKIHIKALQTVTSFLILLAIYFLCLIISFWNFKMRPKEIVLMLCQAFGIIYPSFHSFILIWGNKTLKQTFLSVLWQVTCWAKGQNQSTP
As to the kind of experiment: Antagonist activity at recombinant human N-terminal rat ST3 receptor-fused TAS2R49 expressed in HEK293T cells co-expressing Galpha16gust44 assessed as inhibition of cromolyn-induced increase in intracellular calcium level at 100 uM by FLIPR assay.

The target in assay [4] is T4, Taste receptor type 2 member 14 (Homo sapiens) (UniProt Q9NYV8).
T4 sequence (whole entry): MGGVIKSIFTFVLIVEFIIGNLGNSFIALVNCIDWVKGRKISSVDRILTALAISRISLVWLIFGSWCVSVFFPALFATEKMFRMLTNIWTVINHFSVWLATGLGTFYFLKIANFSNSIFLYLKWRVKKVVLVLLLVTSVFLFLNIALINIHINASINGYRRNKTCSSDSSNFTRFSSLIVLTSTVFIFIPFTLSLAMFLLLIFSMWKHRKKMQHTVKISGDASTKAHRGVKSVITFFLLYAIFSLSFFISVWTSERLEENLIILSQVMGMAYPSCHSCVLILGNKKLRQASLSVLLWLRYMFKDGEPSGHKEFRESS
As to the kind of experiment: Agonist activity at recombinant human N-terminal rat ST3 receptor-fused TAS2R14 expressed in HEK293T cells co-expressing Galpha16gust44 assessed as increase in intracellular calcium level at 100 uM by FLIPR assay.

Assay [5] addresses T5, Taste receptor type 2 member 9 (Homo sapiens) (UniProt Q9NYW1).
T5 sequence (whole entry): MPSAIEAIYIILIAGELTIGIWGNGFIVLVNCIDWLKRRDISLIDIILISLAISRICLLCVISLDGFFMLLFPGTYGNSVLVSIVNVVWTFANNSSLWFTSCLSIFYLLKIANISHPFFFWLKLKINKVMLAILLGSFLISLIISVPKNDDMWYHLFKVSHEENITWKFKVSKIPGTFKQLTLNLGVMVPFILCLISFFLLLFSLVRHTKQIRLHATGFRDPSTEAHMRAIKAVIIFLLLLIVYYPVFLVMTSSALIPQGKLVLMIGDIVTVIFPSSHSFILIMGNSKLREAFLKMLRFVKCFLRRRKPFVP
Put plainly: Antagonist activity at recombinant human N-terminal rat ST3 receptor-fused TAS2R9 expressed in HEK293T cells co-expressing Galpha16gust44 assessed as inhibition of ofloxacin-induced increase in intracellular calcium level at 100 uM by FLIPR assay.

The target of assay [6] is T6, Taste receptor type 2 member 10 (Homo sapiens) (UniProt Q9NYW0).
T6 sequence (whole entry): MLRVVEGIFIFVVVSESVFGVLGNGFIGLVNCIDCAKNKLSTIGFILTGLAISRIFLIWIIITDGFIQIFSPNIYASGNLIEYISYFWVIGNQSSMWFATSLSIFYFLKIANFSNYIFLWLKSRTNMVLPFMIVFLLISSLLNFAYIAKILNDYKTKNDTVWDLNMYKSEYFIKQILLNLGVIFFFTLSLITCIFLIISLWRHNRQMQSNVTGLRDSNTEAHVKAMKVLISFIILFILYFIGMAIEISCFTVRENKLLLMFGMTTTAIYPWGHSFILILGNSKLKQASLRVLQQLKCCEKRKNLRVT
Put plainly: Agonist activity at recombinant human N-terminal rat ST3 receptor-fused TAS2R10 expressed in HEK293T cells co-expressing Galpha16gust44 assessed as increase in intracellular calcium level at 100 uM by FLIPR assay.

Assay [7] deals with T6, Taste receptor type 2 member 10 (Homo sapiens). As to the kind of experiment: Antagonist activity at recombinant human N-terminal rat ST3 receptor-fused TAS2R10 expressed in HEK293T cells co-expressing Galpha16gust44 assessed as inhibition of strychnine-induced increase in intracellular calcium level at 100 uM by FLIPR assay.
In assay [8] the target is Taste receptor type 2 member 40 (Homo sapiens) (UniProt P59535). As to the kind of experiment: Antagonist activity at recombinant human N-terminal rat ST3 receptor-fused TAS2R40 expressed in HEK293T cells co-expressing Galpha16gust44 assessed as inhibition of cohumulone-induced intracellular calcium level at 100 uM by FLIPR assay.
Sequence of Taste receptor type 2 member 40 (Homo sapiens) (P59535 whole entry, the tested form may be a part): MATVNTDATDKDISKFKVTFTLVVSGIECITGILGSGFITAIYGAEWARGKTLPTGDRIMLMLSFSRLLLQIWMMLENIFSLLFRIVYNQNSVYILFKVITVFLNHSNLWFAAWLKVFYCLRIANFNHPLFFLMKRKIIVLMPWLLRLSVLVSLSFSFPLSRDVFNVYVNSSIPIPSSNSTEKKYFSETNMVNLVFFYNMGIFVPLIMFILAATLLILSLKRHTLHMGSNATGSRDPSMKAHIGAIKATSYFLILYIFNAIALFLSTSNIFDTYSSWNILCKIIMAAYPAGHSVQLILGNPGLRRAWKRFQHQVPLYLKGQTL

Structures are written as SMILES. The source made the active and inactive calls. The rule behind the calls is not given here.

Consider `C/C1=C\C[C@H](O)[C@@H](C)C[C@H]2OC(=O)[C@@H](C)[C@@H]2CC1`, for which the inhibition entry in assay [1], in assay [3], in assay [5] and in assay [7] was “inactive” in each case. The inhibition result in assay [2] and in assay [8] was “Active” throughout. The result in assay [4] and in assay [6] was Active.

For the compound `C/C1=C\C[C@H](O)/C(C)=C/[C@H]2OC(=O)[C@@H](C)[C@@H]2CC1`, the inhibition result in assay [1], in assay [2], in assay [3], in assay [5] and in assay [7] was “inactive” in each case. In addition, the outcome in assay [4] and in assay [6] was Active. Moreover, the inhibition result in assay [8] is “Active”.

For the origin of these results see ChEMBL document CHEMBL4418912, “Methods of identifying antagonists of the hTAS2R46 bitter taste receptor” (2014).
